Experimental data reported in publication PMC6516726 (ACS Catalysis, 2018).
Like-named read-outs stand apart in the source and are kept apart here.

Experiments:
PETNR = biological target: PETNR; design: method as in earlier work; conditions: PETNR−coenzyme analogue complex; cited from earlier work
L25A PETNR = L25A PETNR (Enterobacter cloacae, UniProt P71278, L26A); conditions: for A2 (amplitude of kobs2 out of total absorbance change) / kobs1 / kobs2: pH 7.0
L25I PETNR = L25I PETNR (Enterobacter cloacae, UniProt P71278, L26I); conditions: for kobs1 / A2 (amplitude of kobs2 out of total absorbance change) / kobs2: 10 mM NADPH or 25 mM NADH, pH 7.0
WT PETNR [1] = biological target: T1, WT PETNR (Enterobacter cloacae, UniProt P71278); assay: pH dependence of FMN reduction of WT PETNR in MTEN buffer; assay type: biochemical, Enterobacter Cloacae PB2; design: made in house
Protocol: (R)-[4-2H]-NADPH at pH 6, pH 7 and pH9 (A) and the corresponding temperature dependencies of the observed primary kinetic isotope effects (B). The measurements were performed in MTEN buffer (50 mM MES, 25 mM Tris, 25 mM ethanola-mine, and 100 mM NaCl), which has a useful buffering capacity and minimal change in ionic strength over the pH range 6-9 in which PETNR is stable; we attempted testing PETNR in pH 5 as well, but the enzyme is unstable at this pH. The observed rate constants of FMN reduction at pH 7 in MTEN buffer are essentially the same to those measured in 50 mM potassium phosphate buffer, pH 7 and similar observation are valid for the KIEs values (Table S3).The rate of FMN reduction is essentially insensitive to pH across the whole temperature range (5-40 °C), and also that KIEs values are essentially not affected by changes in pH (the rate of FMN reduction by (R)-[4-2H]-NADPH is independent of pH as well across all temperatures studied; see Table S3 for extracted thermodynamic parameters). Although these experiments cannot completely exclude any kinetic […]
of H-transfer and protonation (which would lead to pH-dependent rates) which makes it very likely that the observed rate are reporting directly on the H-transfer step.
Table S3. Extracted Thermodynamic Parameters from pH Dependence Studies.
(kJ mol-1) (J mol-1 K-1) (kJ mol-1 K-1)

WT PETNR [2] = biological target: T1, WT PETNR; assay: Stopped-flow FMN reduction (reductive half-reaction, hydride transfer) of WT PETNR by coenzyme; conditions: for kobs1 / A2 (amplitude of kobs2 out of total absorbance change) / kobs2: 10 mM NADPH or 25 mM NADH, pH 7.0
[3] = 5 °C, 10 mM NADPH or 25 mM NADH
[4] = 10 °C, 10 mM NADPH or 25 mM NADH
[5] = 20 °C, 10 mM NADPH or 25 mM NADH
[6] = 25 °C, 50 mM potassium phosphate pH 7.0, 20 μM enzyme, fast phase
[7] = 25 °C, 10 mM NADPH or 25 mM NADH
[8] = 30 °C, 10 mM NADPH or 25 mM NADH
[9] = 35 °C, 10 mM NADPH or 25 mM NADH
[10] = 40 °C, third phase, 10 mM NADPH or 25 mM NADH
[11] = 40 °C, 10 mM NADPH or 25 mM NADH
[12] = T0 = 298 K, fit of kobs1 (5–40 °C) to eq 1
[13] = 25 °C, 50 mM potassium phosphate pH 7.0, 20 μM enzyme

Sequence of L25I PETNR (P71278 entry or part of it L26I): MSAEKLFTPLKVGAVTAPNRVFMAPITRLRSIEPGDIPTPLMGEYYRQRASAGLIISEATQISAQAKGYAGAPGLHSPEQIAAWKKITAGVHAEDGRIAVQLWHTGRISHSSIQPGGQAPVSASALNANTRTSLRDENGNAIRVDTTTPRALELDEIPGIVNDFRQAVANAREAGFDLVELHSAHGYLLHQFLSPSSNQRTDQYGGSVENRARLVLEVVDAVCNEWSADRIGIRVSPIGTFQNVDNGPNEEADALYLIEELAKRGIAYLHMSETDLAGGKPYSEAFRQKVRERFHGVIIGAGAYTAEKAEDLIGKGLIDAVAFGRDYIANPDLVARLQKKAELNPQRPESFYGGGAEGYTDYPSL
Sequence of L25A PETNR (P71278 entry or part of it L26A): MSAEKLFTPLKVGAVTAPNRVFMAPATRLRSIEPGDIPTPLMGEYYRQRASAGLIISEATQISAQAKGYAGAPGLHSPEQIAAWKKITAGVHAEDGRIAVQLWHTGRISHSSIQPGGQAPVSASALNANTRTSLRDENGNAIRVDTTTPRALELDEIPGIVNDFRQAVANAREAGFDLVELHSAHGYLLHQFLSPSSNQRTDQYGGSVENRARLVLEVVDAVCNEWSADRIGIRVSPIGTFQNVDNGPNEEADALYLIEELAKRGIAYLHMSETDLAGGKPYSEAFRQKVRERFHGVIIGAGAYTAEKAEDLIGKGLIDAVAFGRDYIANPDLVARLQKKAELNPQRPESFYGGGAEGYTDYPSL
T1 sequence (P71278 entry or part of it): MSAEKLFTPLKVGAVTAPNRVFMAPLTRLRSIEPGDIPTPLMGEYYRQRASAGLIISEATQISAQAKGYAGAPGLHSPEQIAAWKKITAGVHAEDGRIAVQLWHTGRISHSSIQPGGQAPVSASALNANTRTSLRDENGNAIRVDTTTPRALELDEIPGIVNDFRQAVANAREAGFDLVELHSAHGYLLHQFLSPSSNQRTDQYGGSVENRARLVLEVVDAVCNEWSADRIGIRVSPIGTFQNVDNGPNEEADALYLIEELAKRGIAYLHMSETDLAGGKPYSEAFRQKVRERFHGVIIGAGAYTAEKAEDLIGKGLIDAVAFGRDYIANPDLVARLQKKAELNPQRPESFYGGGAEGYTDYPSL

NC(=O)C1=CN([C@@H]2O[C@H](COP(=O)(O)OP(=O)(O)OC[C@H]3O[C@@H](n4cnc5c(N)ncnc54)[C@H](OP(=O)(O)O)[C@@H]3O)[C@@H](O)[C@H]2O)CCC1 [NADPH4]
Kd (PETNR): 130 µM

NC(=O)C1=CN([C@@H]2O[C@H](COP(=O)(O)OP(=O)(O)OC[C@H]3O[C@@H](n4cnc5c(N)ncnc54)[C@H](OP(=O)(O)O)[C@@H]3O)[C@@H](O)[C@H]2O)C=CC1 [NADPH]
A2 (amplitude of kobs2 out of total absorbance change) (L25A PETNR; [3]): 2.93 ± 0.55% | kobs1 (L25A PETNR; [3]): 19.18 ± 0.22 s⁻¹ | A2 (amplitude of kobs2 out of total absorbance change) (L25A PETNR; [4]): 2.70 ± 0.56% | kobs1 (L25A PETNR; [4]): 26.03 ± 0.17 s⁻¹ | kobs1 (L25A PETNR; 15 °C, 10 mM NADPH or 25 mM NADH): 34.93 ± 1.25 s⁻¹ | A2 (amplitude of kobs2 out of total absorbance change) (L25A PETNR; [5]): 3.58 ± 0.47% | kobs2 (L25A PETNR; [5]): 2.42 ± 0.48 s⁻¹ | increase in KS vs WT PETNR (L25A PETNR; 25 °C): 2 fold | kred (L25A PETNR; [6]): 55.75 ± 0.35 s^–1 | rate of H-transfer, faster than WT PETNR (L25A PETNR; 25 °C, kred vs WT): 60% | A2 (amplitude of kobs2 out of total absorbance change) (L25A PETNR; [7]): 4.73 ± 0.26% | kobs1 (L25A PETNR; [7]): 53.77 ± 1.15 s⁻¹ | kobs2 (L25A PETNR; [7]): 1.54 ± 0.45 s⁻¹ | A2 (amplitude of kobs2 out of total absorbance change) (L25A PETNR; [8]): 7.50 ± 0.21% | kobs1 (L25A PETNR; [8]): 59.63 ± 2.29 s⁻¹ | A2 (amplitude of kobs2 out of total absorbance change) (L25A PETNR; [9]): 16.48 ± 0.53% | kobs1 (L25A PETNR; [9]): 68.39 ± 8.69 s⁻¹ | kobs2 (L25A PETNR; [9]): 0.51 ± 0.17 s⁻¹ | A3 (amplitude of third phase) (L25A PETNR; [10]): 19.34 ± 0.54% | kobs3 (L25A PETNR; [10]): 3.55 ± 1.03 | A2 (amplitude of kobs2 out of total absorbance change) (L25A PETNR; [11]): 25.54 ± 0.91% | kobs1 (L25A PETNR; [11]): 71.16 ± 6.56 s⁻¹ | kobs2 (L25A PETNR; [11]): 0.26 ± 0.06 s⁻¹ | total absorbance change attributed to kobs2 (L25A PETNR; 40 °C, sum of two slow phases (kobs2 and kobs3)): ~40% | ΔCp^⧧ (L25A PETNR; [12]): –0.92 ± 0.12 kJ mol^–1 K^–1 | ΔHT0^⧧ (L25A PETNR; [12]): 23.3 ± 1.2 kJ mol^–1 | ΔST0^⧧ (L25A PETNR; [12]): –133.7 ± 4.1 J mol^–1 K^–1 | kobs1 (L25I PETNR; 5 °C): 10.12 ± 0.04 s⁻¹ | kobs1 (L25I PETNR; 10 °C): 13.47 ± 0.06 s⁻¹ | kobs1 (L25I PETNR; 15 °C): 18.07 ± 0.05 s⁻¹ | A2 (amplitude of kobs2 out of total absorbance change) (L25I PETNR; 20 °C): 3.28 ± 1.62% | kobs1 (L25I PETNR; 20 °C): 24.33 ± 0.52 s⁻¹ | kobs2 (L25I PETNR; 20 °C): 2.25 ± 2.63 s⁻¹ | KS (L25I PETNR; [13]): 130 ± 8 µM | kred (L25I PETNR; [6]): 29.49 ± 0.49 s^–1 | kobs1 (L25I PETNR; 25 °C): 30.24 ± 0.42 s⁻¹ | kobs1 (L25I PETNR; 30 °C): 36.74 ± 0.28 s⁻¹ | kobs2 (L25I PETNR; 30 °C): 2.57 ± 0.62 s⁻¹ | A2 (amplitude of kobs2 out of total absorbance change) (L25I PETNR; 35 °C): 5.72 ± 0.36% | A2 (amplitude of kobs2 out of total absorbance change) (L25I PETNR; 40 °C): 10.89 ± 0.63% | kobs1 (L25I PETNR; 40 °C): 49.82 ± 1.14 s⁻¹ | ΔCp^⧧ (L25I PETNR; [12]): –0.43 ± 0.07 kJ mol^–1 K^–1 | ΔHT0^⧧ (L25I PETNR; [12]): 30.4 ± 0.6 kJ mol^–1 | ΔST0^⧧ (L25I PETNR; [12]): –114.9 ± 2.0 J mol^–1 K^–1 | ΔCp⧧ (WT PETNR [1]; pH 6, MTEN buffer): -0.58 ± 0.10 kJ mol-1 K-1 | ΔHT0⧧ (WT PETNR [1]; pH 6, MTEN buffer): 6.5 ± 0.14 kcal/mol | ΔST0⧧ (WT PETNR [1]; pH 6, MTEN buffer): -124.3 ± 2.0 J mol-1 K-1 | ΔCp⧧ (WT PETNR [1]; pH 7, MTEN buffer): -0.61 ± 0.08 kJ mol-1 K-1 | ΔHT0⧧ (WT PETNR [1]; pH 7, MTEN buffer): 6.6 ± 0.17 kcal/mol | ΔST0⧧ (WT PETNR [1]; pH 7, MTEN buffer): -122.7 ± 1.6 J mol-1 K-1 | ΔCp⧧ (WT PETNR [1]; pH 9, MTEN buffer): -0.45 ± 0.12 kJ mol-1 K-1 | ΔHT0⧧ (WT PETNR [1]; pH 9, MTEN buffer): 6.91 ± 0.17 kcal/mol | ΔST0⧧ (WT PETNR [1]; pH 9, MTEN buffer): -118.6 ± 2.3 J mol-1 K-1 | kobs1 (WT PETNR [2]; 5 °C): 11.31 ± 0.09 s⁻¹ | kobs1 (WT PETNR [2]; 10 °C): 15.23 ± 0.15 s⁻¹ | kobs1 (WT PETNR [2]; 15 °C): 20.32 ± 0.25 s⁻¹ | kobs1 (WT PETNR [2]; 20 °C): 26.28 ± 0.31 s⁻¹ | KS (WT PETNR [2]; [13]): 103 ± 4 µM | kred (WT PETNR [2]; [6]): 33.43 ± 0.22 s^–1 | kobs1 (WT PETNR [2]; 25 °C): 33.74 ± 0.46 s⁻¹ | A2 (amplitude of kobs2 out of total absorbance change) (WT PETNR [2]; 35 °C): 1.41 ± 0.23% | kobs1 (WT PETNR [2]; 35 °C): 50.46 ± 0.75 s⁻¹ | kobs2 (WT PETNR [2]; 35 °C): 1.19 ± 0.92 s⁻¹ | A2 (amplitude of kobs2 out of total absorbance change) (WT PETNR [2]; 40 °C): 2.29 ± 0.35% | kobs1 (WT PETNR [2]; 40 °C): 58.49 ± 0.50 s⁻¹ | kobs2 (WT PETNR [2]; 40 °C): 1.09 ± 0.16 s⁻¹ | ΔCp^⧧ (WT PETNR [2]; [12]): –0.50 ± 0.05 kJ mol^–1 K^–1 | ΔHT0^⧧ (WT PETNR [2]; [12]): 30.4 ± 0.3 kJ mol^–1 | ΔST0^⧧ (WT PETNR [2]; [12]): –113.9 ± 0.9 J mol^–1 K^–1
